According to patent publication US5250563A, “Inhibitors of HIV protease” (Merck & Co., Inc., priority 1992, dated 1993):

The compounds below were run against T1, HIV protease (Human immunodeficiency virus type 1 group M subtype B, UniProt P04585) (assay: peptide cleavage assay (HIV protease assay)). Conditions: not given.
Format: biochemical

| Compound | IC50 [µM] |
| --- | --- |
| C=C1C(C)C2C(Cc3ccccc3)NC(=O)C23C(OC(C)=O)C=CC(C)CC(C)CC=CC3C1O (centres unmarked) [Compound 1] | ~6.28 |

The compounds below were run against T1, HIV protease (assay: Assay for Inhibition of Recombinant HIV Protease (tritiated peptide substrate cleavage)). Conditions: pH 5.5, 60 minutes at 37° C., HIV protease expressed in Escherichia coli, [3H]-peptide substrate.
Format: biochemical
Design: the HIV protease expressed in Escherichia coli; made in house; host or cells: Escherichia coli
Description: Assay for Inhibition of Recombinant HIV Protease
Inhibition studies were performed on the reaction of the HIV protease expressed in Escherichia coli with a tritiated peptide substrate, [^3 H]-acetyl-Val-Ser-Gln-Asn-(beta-napthyl-Ala)-Pro-Ile-Val-Gin-Gly-Arg-Arg-NH2 (MW 1800). The two arginine residues at the carboxyl terminus give this peptide an overall positive charge at acidic pH and enable it to bind to the H^+ form of DOWEX AG-50W-X8 resin and similar resins.
Aliquots of 25 μl containing 6.0-8.0 nM HIV protease in assay buffer (100 mM sodium acetate, pH 5.5 and 0.1% BSA) are placed in assay tubes. The reaction is initiated by addition of 25 μl aliquots of 4.2 μM tritiated peptide substrate in 100 mM sodium acetate, pH 5.5. After incubation for 60 minutes at 37° C., the reaction is stopped with 100 μl of 5% H3 PO4, then analysed by application of column chromatography.

| Compound | IC50 [µM] |
| --- | --- |
| C=C1C(C)C2C(Cc3ccccc3)NC(=O)C23C(OC(C)=O)C=CC(C)CC(O)(CO)CC=CC3C1O (centres unmarked) [Compound 6] | > 50 |
| C=C1C(C)C2C(Cc3ccccc3)NC(=O)C23C(OC(C)=O)C=CC(C)CC(CO)CC=CC3C1O (centres unmarked) [Compound 2] | 43 |
| C=C1C(C)C2C(Cc3ccc(O)c(O)c3)NC(=O)C23C(OC(C)=O)C=CC(C)CC(CO)CC=CC3C1O (centres unmarked) [Compound 5] | > 50 |
| C=C1C(C)C2C(Cc3cccc(O)c3)NC(=O)C23C(OC(C)=O)C=CC(C)CC(CO)CC=CC3C1O (centres unmarked) [Compound 4] | 25 |
| C=C1C(C)C2C(Cc3ccc(O)cc3)NC(=O)C23C(OC(C)=O)C=CC(C)CC(CO)CC=CC3C1O (centres unmarked) [Compound 3] | 40 |
| C=C1C(C)C2C(Cc3ccccc3)NC(=O)C23C(OC(C)=O)C=CC(C)CC(C)CC=CC3C1O (centres unmarked) [Compound 1] | 10 |
| C=C1C(C)C2C(Cc3cccc(O)c3)NC(=O)C23C(OC(C)=O)C=CC(C)CC(O)(CO)CC=CC3C1O (centres unmarked) [Compound 7] | > 50 |
